Results reported in patent US10864211B2, “Hydroxy isoxazole compounds useful as GPR120 agonists” (Merck Sharp & Dohme Corp., priority 2016, dated 2020).
Structures can show the parent of a compound that is named as a salt.

Target: T1, human GPR120 (Homo sapiens, UniProt Q5NUL3)
T1 construct: expressed in transfected cells; host or cells: CHO-K1
T1 sequence (Q5NUL3 1-361): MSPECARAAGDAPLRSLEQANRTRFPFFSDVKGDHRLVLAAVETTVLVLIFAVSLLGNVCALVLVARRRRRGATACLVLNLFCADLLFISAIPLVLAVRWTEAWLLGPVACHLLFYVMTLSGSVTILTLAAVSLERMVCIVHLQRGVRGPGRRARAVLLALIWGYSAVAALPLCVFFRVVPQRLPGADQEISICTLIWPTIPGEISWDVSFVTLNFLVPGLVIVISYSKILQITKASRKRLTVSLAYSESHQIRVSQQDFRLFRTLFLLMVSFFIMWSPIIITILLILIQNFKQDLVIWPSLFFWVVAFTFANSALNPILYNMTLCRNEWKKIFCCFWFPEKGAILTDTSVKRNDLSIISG
Experiment: Human GPR120 IP1 assay (inositol phosphate turnover)
Type: cell-based
Settings: IP1 accumulation in CHO-K1 cells stably expressing the short form of human GPR120
Description: The binding of small molecule agonists to the G-protein-coupled receptor GPR120 activates phospholipase C, and leads to the generation of inositol 1,4,5-trisphosphate (InsP3 or IP3). IP3 is subsequently de-phosphorylated to IP1, which accumulates in cells and is stable in the presence of lithium chloride.
In the present method, agonist-induced activation of the human and rat GPR120 receptor was monitored by measuring the accumulation of IP1 in CHO-K1 cells that were stably expressing the short form of human GPR120 (Accession #NM_001195755) or HEK293 cells stably expressing rat GPR120 (Accession #NM_001047088). Following agonist addition, GPR120 activation and subsequent accumulation of IP1 was measured using a homogeneous Time Resolved Fluorescence-based ELISA commercially available from CisBio (IP-one ELISA Kit). The IP-One ELISA was a competitive immunoassay which uses IP1 labeled with […] and a terbium cryptate-labeled anti-IP1 monoclonal antibody. […] The signal loss was then back calculated to IP1 concentration using an IP1 standard curve. Determination of IP1 concentration was a direct measure of GPR120 activation and was used to determine compound potency (EC50).
Human GPR120 stable cell-lines were generated in CHO cells. The expression plasmids were transfected using lipofectamine (Life Technologies) following manufacturer's instructions. Stable cell-lines were generated following drug selection and single cell cloning. Rat GPR120 stable cell-lines were generated in HEK cells using the Jump-In™ cell engineering platform (Life Technologies) following manufacturer's instructions. Stable cell-lines were generated following drug selection and single cell cloning.
The assay was performed in 384-well format. CHO cells stably expressing human GPR120 were plated at 20,000 cells per well in growth medium (DMEM/F12, 10% fetal calf serum). HEK293 cells stably expressing rat GPR120 were plated at […] per well in growth medium (DMEM, 10% fetal calf serum). Cell plates were then incubated 16 hours at 37 degrees in a 5% CO2 incubator. Measurement of Inositol Phosphate Turnover (IP1) was performed using the CisBio IP-One kit (Part number 62IPAPEB). After the 16 hour incubation, the growth media was removed by centrifugation using the BlueWasher (AusWasher GUI Ver. v1.0.1.8) Protocol #21-“Light Dry” and 10 μl of stimulation buffer (prepared as described in the kit) was added to each well. In a separate plate, compounds were diluted in DMSO (200-fold over the final concentration in the assay well) and 50 nl was acoustically transferred to the appropriate well in the assay cell plate. The plates were then incubated for 60 minutes at 37 degrees in a 5% CO2 incubator. 10 μl of detection buffer (also prepared as described in the IP-One kit) was added to each well and the plates were incubated at room temperature for 60 minutes in the dark. The plates were then read in a Perkin ElmerEnVision or equivalent reader able to measure FRET. Fluorescent ratio of emission at 665 and 620 nm was then converted to the IP1 concentration by back calculating from an IP1 standard curve prepared at the time of the assay. The data was normalized to % activity using a reference compound, and the EC50 values were determined using a standard 4-parameter fit.

| EC50 [nM] | SMILES |
| --- | --- |
| 29 | Oc1cc(-c2ccc(OC3CC(OCc4ccc(F)cc4F)C3)nc2)on1 (mixture of isomers) [Example 72, 5-[6-({cis-3-[(2,4-difluorobenzyl)oxy]cyclobutyl}oxy)pyridin-3-yl]isoxazol-3-ol (mixture of isomers predominantly cis)] |
| 166 | N#Cc1cccc(COC2CC(Oc3ccc(-c4cc(O)no4)cn3)C2)c1 (mixture of isomers) [Example 73, 3-{[(cis-3-{[5-(3-hydroxyisoxazol-5-yl)pyridin-2-yl]oxy}cyclobutyl)oxy]methyl}benzonitrile (mixture of isomers predominantly cis)] |
| 138 | Oc1cc(-c2ccc(OC3CC(OCc4cc(F)ccc4C(F)(F)F)C3)nc2)on1 (mixture of isomers) [Example 76, ammonium 5-{6-[(cis-3-{[5-fluoro-2-(trifluoromethyl)benzyl]oxy}cyclobutyl)oxy]pyridin-3-yl)isoxazol-3-olate (mixture of isomers predominantly cis)] |
| 388 | N#Cc1cccc(COC2CC(Oc3ccc(-c4cc(O)no4)cn3)C2)c1F (mixture of isomers) [Example 77, ammonium 5-[6-({cis-3-[(3-cyano-2-fluorobenzyl)oxy]cyclobutyl}oxy)pyridin-3-yl]isoxazol-3-olate (mixture of isomers predominantly cis)] |
| 305 | CC(OC1CC(Oc2ccc(-c3cc(O)no3)cn2)C1)c1ccccc1 (mixture of isomers) [Example 78, 5-(6-{[3-(1-phenylethoxy)cyclobuty]oxy}pyridin-3-yl)isoxazol-3-ol (mixture of isomers)] |
| 13 | Oc1cc(-c2cnc(OC3CC(OCc4cc(C(F)(F)F)ccc4F)C3)cn2)on1 (mixture of isomers) [Example 79, 5-{5-[(cis-3-{[2-fluoro-5-(trifluoromethyl)benzyl]oxy}cyclobutyl)oxy]pyrazin-2-yl}isoxazol-3-ol (mixture of isomers predominantly cis)] |
| 23 | Oc1cc(-c2cnc(OC3CC(OCC4CCCCC4)C3)cn2)on1 (mixture of isomers) [Example 80, 5-(5-{[cis-3-(cyclohexylmethoxy)cyclobutyl]oxy}pyrazin-2-yl)isoxazol-3-ol (mixture of isomers predominantly cis)] |
| 31 | Oc1cc(-c2cnc(OC3CC(OCC4CCCC4)C3)cn2)on1 (mixture of isomers) [Example 81, sodium 5-(5-{[cis-3-(cyclopentylmethoxy)cyclobutyl]oxy}pyrazin-2-yl)isoxazol-3-olate (mixture of isomers predominantly cis)] |
| 51 | Oc1cc(-c2cnc(O[C@H]3C[C@@](F)(c4cc(OC(F)(F)F)ccc4F)C3)cn2)on1 (single isomer, unassigned) [Example 89, 5-[5-({trans-3-fluoro-3-[2-fluoro-5-(trifluoromethoxy)phenyl]-cyclobutyl}oxy)pyrazin-2-yl]isoxazol-3-ol] |
| 18 | Oc1cc(-c2ccc(OC3CCC(c4cccc(OC(F)(F)F)c4)C3)nc2)on1 (single isomer, unassigned) [Example 116, 5-(3-hydroxyisoxazol-5-yl)-2-({3-[3-(trifluoromethoxy)-phenyl]cyclopentyl}oxy)pyridinium trifluoroacetate] |
| 59 | Oc1cc(-c2ccc(OC3CCC(c4cccc(OC(F)(F)F)c4)C3)nc2)on1 (single isomer, unassigned) [Example 117, 5-(3-hydroxyisoxazol-5-yl)-2-({3-[3-(trifluoromethoxy)phenyl]cyclopentyl}oxy)pyridinium trifluoroacetate] |
| 34 | Oc1cc(-c2ccc(OC3CCC(c4cccc(OC(F)(F)F)c4)C3)nc2)on1 (single isomer, unassigned) [Example 118] |
| 12 | Oc1cc(-c2ccc(OC3CCC(c4cccc(OC(F)(F)F)c4)C3)nc2)on1 (single isomer, unassigned) [Example 119, 5-(6-((3-(3-(trifluoromethoxy)phenyl)cyclopentyl)oxy)pyridin-3-yl)isoxazol-3-ol] |
| 8.7 | Oc1cc(-c2cnc(O[C@H]3C[C@@H](c4ccc(C(F)F)c(F)c4)C3)cn2)on1 [Example 1, 5-[5-({cis-3-[4-(difluoromethyl)-3-fluorophenyl]cyclobutyl}oxy)pyrazin-2-yl]isoxazol-3-ol] |
| 178 | Oc1cc(-c2cnc(O[C@H]3C[C@H](c4ccc(C(F)F)c(F)c4)C3)cn2)on1 [Example 2, 5-[5-({trans-3-[4-(difluoromethyl)-3-fluorophenyl]cyclobutyl}oxy)pyrazin-2-yl]isoxazol-3-ol] |
| 102 | Oc1cc(-c2cnc(O[C@H]3C[C@@H](c4cc(F)cc(OC(F)(F)F)c4)C3)cn2)on1 [Example 3, ammonium 5-[5-({cis-3-[3-fluoro-5-(trifluoromethoxy)-phenyl]cyclobutyl}oxy)pyrazin-2-1]isoxazol-3-olate] |
| 83 | Oc1cc(-c2cnc(O[C@H]3C[C@@H](c4ccc(OC5CC5)cc4)C3)cn2)on1 [Example 4, sodium 5-[5-({cis-3-[4-(cyclopropyloxy)phenyl]cyclobutyl}-oxy)pyrazin-2-yl]isoxazol-3-olate] |
| 82 | Oc1cc(-c2cnc(O[C@H]3C[C@@H](c4nc(C(F)(F)F)cs4)C3)cn2)on1 [Example 5, 5-[5-({cis-3-[4-(trifluoromethyl)-1,3-thiazol-2-yl]cyclobutyl}oxy)pyrazin-2-yl]isoxazol-3-ol] |
| 129 | Oc1cc(-c2cnc(O[C@H]3C[C@@H](c4ncc(C(F)(F)F)s4)C3)cn2)on1 [Example 6, 5-[5-({cis-3-[5-(trifluoromethyl)-1,3-thiazol-2-yl]cyclobutyl}oxy)pyrazin-2-yl]isoxazol-3-ol] |
| 11 | Oc1cc(-c2cnc(O[C@H]3C[C@@H](c4ccc(Br)cc4)C3)cn2)on1 [Example 7, ammonium 5-(5-{[cis-3-(4-bromophenyl)cyclobutyl]oxy}pyrazin-2-yl)isoxazol-3-olate] |
| 303 | Oc1cc(-c2ccc(O[C@H]3C[C@H](c4ncc(C(F)(F)F)cc4F)C3)nc2)on1 [Example 8, sodium 5-[6-({trans-3-[3-fluoro-5-(trifluoromethyl)pyridin-2-yl]-cyclobutyl}oxy)pyridin-3-yl]isoxazol-3-olate] |
| 23 | Oc1cc(-c2ccc(O[C@H]3C[C@@H](c4ncc(C(F)(F)F)cc4F)C3)nc2)on1 [Example 9, sodium 5-[6-({cis-3-[3-fluoro-5-(trifluoromethyl)pyridin-2-yl]-cyclobutyl}oxy)pyridin-3-yl]isoxazol-3-olate] |
| 34 | Oc1cc(-c2cnc(O[C@H]3C[C@@H](c4ccc(F)cc4)C3)cn2)on1 [Example 10, sodium 5-(5-{[cis-3-(4-fluorophenyl)cyclobutyl]oxy}pyrazin-2-yl)isoxazol-3-olate] |
| 112 | Oc1cc(-c2ccc(O[C@H]3C[C@@H](c4cc(OC(F)(F)F)ccc4F)C3)nc2)on1 [Example 11, ammonium 5-[6-({cis-3-[2-fluoro-5-(trifluoromethoxy)phenyl]cyclo-butyl}oxy)pyridin-3-yl]isoxazol-3-olate] |
| 181 | CCc1ccc([C@H]2C[C@@H](Oc3ccc(-c4onc(O)c4F)cn3)C2)cc1 [Example 13, ammonium 5-(6-{[cis-3-(4-ethylphenyl)cyclobuty]oxy}pyridin-3-yl)-4-fluoroisoxazol-3-olate] |
| 19 | CCc1ccc([C@H]2C[C@@H](Oc3ccc(-c4cc(O)no4)cn3)C2)cc1 [Example 14, 5-(6-{[cis-3-(4-ethylphenyl)-cyclobutyl]oxy}pyridin-3-yl)isoxazol-3-ol] |
